# From patent US20050004092A1, “Penem derivatives and antimicrobial agent containing the same” (DAIICHI SUNTORY PHARMA CO., LTD., priority 1995, published 2005)
# Where two headings read alike, the source gives them in different places.
# Tests used:
# Assay in all cases: antibacterial activity (MIC), standard in vitro dilution test
# [1] = tested on: MRSA 31 high-resist. (IPM resist.); format: cell-based, Staphylococcus aureus; details: for MIC: Staphylococcus aureus, MRSA, read-out: MIC, MRSA 31 high-resist. (IPM resist.)
# From the text: (§1) With respect to certain compounds (I) of the present invention, their general antibacterial activities and their antibacterial activities (MIC) against various methicillin-resistant strains of Staphylococcus aureus (methicillin-resistant Staphylococcus aureus: MRSA) were investigated. The results will be shown next.
# (§2) Of the investigations, the general antibacterial activities were investigated by a standard in vitro dilution test.
# (§3) As test bacteria, Staphylococcus aureus 209P JC-1, Escherichia coli NIHJ JC-2 and MRSAs were used.
# [2] = tested on: MRSA 33 high-resist. (IPM resist.); format: cell-based, Staphylococcus aureus; details: for MIC: Staphylococcus aureus, MRSA, read-out: MIC, MRSA 33 high-resist. (IPM resist.)
# From the text: as §1, §2, §3
# [3] = tested on: Escherichia coli NIHJ JC-2 strain; format: cell-based; details: for MIC, Escherichia coli NIHJ JC-2 strain: test bacterium strain 10^5 cfu/ml; for MIC: Escherichia coli
# From the text: as §1, §2, §3
# [4] = tested on: Staphylococcus aureus 209P JC-1 strain; format: cell-based; details: for MIC: Staphylococcus aureus, 209P, read-out: MIC, Staphylococcus aureus 209P JC-1 strain
# From the text: as §1, §2, §3
# [5] = test bacterium strain 10^5 cfu/ml
# [6] = NIHJJC2, test bacterium strain 10^5 cfu/ml, read-out: MIC, Escherichia coli NIHJ JC-2 strain
Compound,"MIC [1, 5]","MIC [2, 5]","MIC [3, 6]","MIC [4, 5]",further results
"C=CCN1CCC(SC2=C(C(=O)O)N3C(=O)[C@@H]([C@@H](O)CC)[C@H]3S2)C1 (stereo partly drawn) [Ex. 17, (5R,6R)-2-(1-allyl-3-pyrrolidine)-thio-6-((S)-1-hydroxypropyl)penem-3-carboxylic acid]",–,–,–,–,"MIC, MRSA 31 high-resist. (IPM resist.) [1, 5]: 3.13 µg/mL; MIC, MRSA 33 high-resist. (IPM resist.) [2, 5]: 3.13 µg/mL; MIC, Escherichia coli NIHJ JC-2 strain [3]: 0.39 µg/mL; MIC, Staphylococcus aureus 209P JC-1 strain [4, 5]: 0.10 µg/mL"
"C=CCN1CCC(SC2=C(C(=O)O)N3C(=O)[C@@H]([C@@H](O)CC)[C@H]3S2)C1 (stereo partly drawn) [Ex. 18, (5R,6R)-2-(1-allyl-3-pyrrolidine)-thio-6-((S)-1-hydroxypropyl)penem-3-carboxylic acid]",–,–,–,–,"MIC, MRSA 31 high-resist. (IPM resist.) [1, 5]: 3.13 µg/mL; MIC, MRSA 33 high-resist. (IPM resist.) [2, 5]: 3.13 µg/mL; MIC, Escherichia coli NIHJ JC-2 strain [3]: 0.39 µg/mL; MIC, Staphylococcus aureus 209P JC-1 strain [4, 5]: ≦0.025 μg/ml"
"CC[C@H](O)[C@]1(C(=O)O)C(=O)N2C=C(S[C@H]3CCN(Cc4ccccc4)C3)S[C@@H]21 [Ex. 44, (5R,6R)-2-((S)-1-benzylpyrrolidin-3-yl)thio-6-((S)-1-hydroxypropyl)penem-6-carboxylic acid]",3.13 µg/mL,3.13 µg/mL,3.13 µg/mL,0.1 µg/mL,–
"CC[C@H](O)[C@@H]1C(=O)N2C(C(=O)O)=C(S[C@H]3CCN(C(C)=N)C3)S[C@H]12 [Ex. 103, (5R,6R)-2-((S)-1-(1-iminoethyl)-pyrrolidin-3-yl)thio-6-((S)-1-hydroxypropyl)-penem-3-carboxylic acid]",3.13 µg/mL,3.13 µg/mL,0.39 µg/mL,0.1 µg/mL,–
"CC[C@H](O)[C@@H]1C(=O)N2C(C(=O)O)=C(SC3CCN(c4ccccc4)C3)S[C@H]12 (stereo partly drawn) [Ex. 105, (5R,6R)-6-((S)-1-hydroxypropyl)-2-(1-phenylpyrrolidin-3-yl)thiopenem-3-carboxylic acid]",1.56 µg/mL,1.56 µg/mL,> 12.5 µg/mL,0.1 µg/mL,–
"CC[C@H](O)[C@@H]1C(=O)N2C(C(=O)O)=C(S[C@H]3CCN(C[C@@H](O)c4ccccc4)C3)S[C@H]12 [Ex. 107, (5R,6R)-6-((S)-1-hydroxypropyl)-2-(1-((S)-2-hydroxy-2-phenylethyl)pyrrolidin-3-yl)thiopenem-3-carboxylic acid]",6.25 µg/mL,6.25 µg/mL,1.56 µg/mL,0.1 µg/mL,–
CC[C@H](O)[C@@H]1C(=O)N2C(C(=O)O)=C(S[C@H]3CCN(C(C)C(=O)c4ccccc4)C3)S[C@H]12 (stereo partly shown) [Ex. 117],–,–,–,–,"MIC [1]: 6.25 µg/mL; MIC [2]: 6.25 µg/mL; MIC ([3]; NIHJJC2, read-out: MIC, Escherichia coli NIHJ JC-2 strain): 1.56 µg/mL; MIC [4]: 0.1 µg/mL"

# Second part, led by results:
"MIC [1, 5]","MIC [2, 5]","MIC [3, 6]","MIC [4, 5]",Compound,further results
3.13 µg/mL,3.13 µg/mL,0.2 µg/mL,0.1 µg/mL,"CC[C@H](O)[C@@H]1C(=O)N2C(C(=O)O)=C(S[C@H]3CCN(CC(=O)c4ccccc4)C3)S[C@H]12 [Ex. 111, (5R,6R)-6-((S)-1-hydroxypropyl)-2-((S)-1-phenacylpyrrolidin-3-yl)thiopenem-3-carboxylic acid]",–
6.25 µg/mL,6.25 µg/mL,0.78 µg/mL,0.1 µg/mL,"CC[C@H](O)[C@@H]1C(=O)N2C(C(=O)O)=C(S[C@H]3CCN(CC(=O)c4ccc(F)cc4)C3)S[C@H]12 [Ex. 112, (5R,6R)-2-((S)-1-(2-p-fluorophenyl-2-oxoethyl)pyrrolidin-3-yl)thio-6-((S)-1-hydroxypropyl)penem-3-carboxylic acid]",–
6.25 µg/mL,6.25 µg/mL,0.39 µg/mL,0.1 µg/mL,"CC[C@H](O)[C@@H]1C(=O)N2C(C(=O)O)=C(S[C@H]3CCN(CC(=O)c4ccc(C)cc4)C3)S[C@H]12 [Ex. 113, (5R,6R)-6-((S)-1-hydroxypropyl)-2-((S)-1-(2-oxo-2-p-tolylethyl)pyrrolidin-3-yl)-thiopenem-3-carboxylic acid]",–
6.25 µg/mL,6.25 µg/mL,0.2 µg/mL,0.2 µg/mL,"CC[C@H](O)[C@@H]1C(=O)N2C(C(=O)O)=C(S[C@H]3CCN(CC(=O)c4ccc(OC)cc4)C3)S[C@H]12 [Ex. 114, (5R,6R)-6-((S)-1-hydroxypropyl)-2-((S)-1-(2-p-methoxyphenyl-2-oxoethyl)pyrrolidin-3-yl)thiopenem-3-carboxylic acid]",–
3.13 µg/mL,3.13 µg/mL,0.2 µg/mL,0.05 µg/mL,"CC[C@H](O)[C@@H]1C(=O)N2C(C(=O)O)=C(S[C@H]3CCN(CCC(=O)c4ccccc4)C3)S[C@H]12 [Ex. 116, (5R,6R)-2-((S)-1-(2-benzoylethyl)-pyrrolidin-3-yl)thio-6-((S).-1-hydroxypropyl)-penem-3-carboxylic acid]",–
6.25 µg/mL,6.25 µg/mL,3.13 µg/mL,0.2 µg/mL,"CC[C@H](O)[C@@H]1C(=O)N2C(C(=O)O)=C(S[C@H]3CCN(Cc4ccccn4)C3)S[C@H]12 [Ex. 123, (5R,6R)-6-((S)-1-hydroxypropyl)-2-((S)-1-(2-pyridylmethyl)pyrrolidin-3-yl)thiopenem-3-carboxylic acid]",–
